Data: patent publication US9284333B2, “Fused pyrroledicarboxamides and their use as pharmaceuticals” (SANOFI, priority 2012, dated 2016)

Target: Human TASK-1 channels (Homo sapiens (Human), UniProt O14649)
Experiment: Determination of the activity on the TASK-1 channel in Xenopus oocytes (two-microelectrode voltage clamp)
Assay type: cell-based
Conditions: for IC50: human TASK-1 expressed in Xenopus oocytes, room temperature, read-out: IC50 value for TASK-1 inhibition; for inhibition at 5 µM: compound concentration 5 μM
In short: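 Current during 500 ms pulses to 40 mV from a −90 mV hold was recorded in oocytes expressing human TASK-1 for two days after cRNA injection. Compounds were added cumulatively to the ND96 bath (pH 7.4, room temperature). IC50 came from dose-response fitting of inhibition relative to pre-compound current.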

Chain of Human TASK-1 channels (O14649 whole entry): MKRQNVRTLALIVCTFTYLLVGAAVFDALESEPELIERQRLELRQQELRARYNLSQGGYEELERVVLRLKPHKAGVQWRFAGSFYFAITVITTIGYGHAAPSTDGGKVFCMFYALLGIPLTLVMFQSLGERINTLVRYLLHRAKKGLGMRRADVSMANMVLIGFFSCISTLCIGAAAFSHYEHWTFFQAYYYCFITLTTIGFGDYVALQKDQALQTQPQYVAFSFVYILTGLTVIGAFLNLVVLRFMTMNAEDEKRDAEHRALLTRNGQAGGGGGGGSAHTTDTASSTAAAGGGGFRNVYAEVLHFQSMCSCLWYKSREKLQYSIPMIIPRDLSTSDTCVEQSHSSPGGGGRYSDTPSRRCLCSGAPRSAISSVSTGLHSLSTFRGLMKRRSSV

## CC[C@@H](NC(=O)c1cc(C(=O)NCc2ccc(CC(=O)OC)cc2)n2c1COCC2)c1ccccc1 [16is, [4-({[8-((R)-1-Phenyl-propylcarbamoyl)-3,4-dihydro-1H-pyrrolo[2,1-c][1,4]oxazine-6-carbonyl]-amino}-methyl)-phenyl]-acetic acid methyl ester]
  IC50: 1700 nM

## CC[C@@H](NC(=O)c1cc(C(=O)N[C@@H](C)C(=O)OC(C)C)n2c1COCC2)c1ccccc1 [16it, (S)-2-{[8-((R)-1-Phenyl-propylcarbamoyl)-3,4-dihydro-1H-pyrrolo[2,1-c][1,4]oxazine-6-carbonyl]-amino}-propionic acid isopropyl ester]
  IC50: 130 nM

## CC[C@@H](NC(=O)c1cc(C(=O)N(C)CC(=O)OC(C)C)n2c1COCC2)c1ccccc1 [16iu, {Methyl-[8-((R)-1-phenyl-propylcarbamoyl)-3,4-dihydro-1H-pyrrolo[2,1-c][1,4]oxazine-6-carbonyl]-amino}-acetic acid isopropyl ester]
  IC50: 120 nM

## CC[C@@H](NC(=O)c1cc(C(=O)NC(C)c2cnc(OC)cn2)n2c1COCC2)c1ccccc1 (stereo partly drawn) [16iv, 3,4-Dihydro-1H-pyrrolo[2,1-c][1,4]oxazine-6,8-dicarboxylic acid 6-{[1-(5-methoxy-pyrazin-2-yl)-ethyl]-amide} 8-[((R)-1-phenyl-propyl)-amide]]
  IC50: 120 nM

## CC[C@@H](NC(=O)c1cc(C(=O)NCC(=O)OC(C)C)n2c1COCC2)c1ccccc1 [16iw, {[8-((R)-1-Phenyl-propylcarbamoyl)-3,4-dihydro-1H-pyrrolo[2,1-c][1,4]oxazine-6-carbonyl]-amino}-acetic acid isopropyl ester]
  IC50: 620 nM

## CC[C@@H](NC(=O)c1cc(C(=O)N[C@H](CC)c2cccc(O)c2)n2c1COCC2)c1ccccc1 [16ix, 3,4-Dihydro-1H-pyrrolo[2,1-c][1,4]oxazine-6,8-dicarboxylic acid 6-{[(R)-1-(3-hydroxy-phenyl)-propyl]-amide} 8-[((R)-1-phenyl-propyl)-amide]]
  IC50: 360 nM

## CCOC(=O)CN(C)C(=O)c1cc(C(=O)N[C@H](CC)c2ccccc2)c2n1CCOC2 [16iy, {Methyl-[8-((R)-1-phenyl-propylcarbamoyl)-3,4-dihydro-1H-pyrrolo[2,1-c][1,4]oxazine-6-carbonyl]-amino}-acetic acid ethyl ester]
  IC50: 270 nM

## CC[C@@H](NC(=O)c1cc(C(=O)N[C@H](CO)C(C)C)n2c1COCC2)c1ccccc1 [16iz, 3,4-Dihydro-1H-pyrrolo[2,1-c][1,4]oxazine-6,8-dicarboxylic acid 6-[((S)-1-hydroxymethyl-2-methyl-propyl)-amide] 8-[((R)-1-phenyl-propyl)-amide]]
  IC50: 1900 nM

## CC[C@@H](NC(=O)c1cc(C(=O)N[C@H](CC)c2ccc(OC)nc2)n2c1COCC2)c1ccccc1 [16j, 3,4-Dihydro-1H-pyrrolo[2,1-c][1,4]oxazine-6,8-dicarboxylic acid 6-{[(R)-1-(6-methoxy-pyridin-3-yl)-propyl]-amide} 8-[((R)-1-phenyl-propyl)-amide]]
  IC50: 200 nM

## CC[C@@H](NC(=O)c1cc(C(=O)N(C)[C@@H](C)C(=O)OC(C)C)n2c1COCC2)c1ccccc1 [16ja, (S)-2-{Methyl-[8-((R)-1-phenyl-propylcarbamoyl)-3,4-dihydro-1H-pyrrolo[2,1-c][1,4]oxazine-6-carbonyl]-amino}-propionic acid isopropyl ester]
  IC50: 100 nM

## CC[C@@H](NC(=O)c1cc(C(=O)N(C)Cc2ncccn2)n2c1COCC2)c1ccccc1 [16jc, 3,4-Dihydro-1H-pyrrolo[2,1-c][1,4]oxazine-6,8-dicarboxylic acid 6-(methyl-pyrimidin-2-ylmethyl-amide) 8-[((R)-1-phenyl-propyl)-amide]]
  IC50: 2700 nM

## CC[C@@H](NC(=O)c1cc(C(=O)NCC(C)(C)O)n2c1COCC2)c1ccccc1 [16jd, 3,4-Dihydro-1H-pyrrolo[2,1-c][1,4]oxazine-6,8-dicarboxylic acid 6-[(2-hydroxy-2-methyl-propyl)-amide] 8-[((R)-1-phenyl-propyl)-amide]]
  IC50: 2500 nM

## CC[C@@H](NC(=O)c1cc(C(=O)NCc2cccnn2)n2c1COCC2)c1ccccc1 [16jf, 3,4-Dihydro-1H-pyrrolo[2,1-c][1,4]oxazine-6,8-dicarboxylic acid 8-[((R)-1-phenyl-propyl)-amide] 6-[(pyridazin-3-ylmethyl)-amide]]
  inhibition at 5 µM: 36%

## CC[C@@H](NC(=O)c1cc(C(=O)NCc2ccc(OC)nc2)n2c1COCC2)c1ccccc1 [16jg, 3,4-Dihydro-1H-pyrrolo[2,1-c][1,4]oxazine-6,8-dicarboxylic acid 6-[(6-methoxy-pyridin-3-ylmethyl)-amide] 8-[((R)-1-phenyl-propyl)-amide]]
  inhibition at 5 µM: 80%

## CC[C@@H](NC(=O)c1cc(C(=O)N[C@H](CC)c2cccc(S(C)(=O)=O)c2)n2c1COCC2)c1ccccc1 [16jh, 3,4-Dihydro-1H-pyrrolo[2,1-c][1,4]oxazine-6,8-dicarboxylic acid 6-{[(R)-1-(3-methanesulfonyl-phenyl)-propyl]-amide}-8-[((R)-1-phenyl-propyl)-amide]]
  IC50: 780 nM

## CCC(NC(=O)c1cc(C(=O)N[C@H](CC)c2ccccc2)c2n1CCOC2)c1cccc(S(N)(=O)=O)c1 (stereo partly drawn) [16ji, 3,4-Dihydro-1H-pyrrolo[2,1-c][1,4]oxazine-6,8-dicarboxylic acid 8-[((R)-1-phenyl-propyl)-amide] 6-{[1-(3-sulfamoyl-phenyl)-propyl]-amide}]
  IC50: 1900 nM

## CC[C@@H](NC(=O)c1cc(C(=O)N[C@@H](CO)C(C)C)n2c1COCC2)c1ccccc1 [16jj, 3,4-Dihydro-1H-pyrrolo[2,1-c][1,4]oxazine-6,8-dicarboxylic acid 6-[((R)-1-hydroxymethyl-2-methyl-propyl)-amide] 8-[((R)-1-phenyl-propyl)-amide]]
  IC50: 4400 nM

## CC[C@@H](NC(=O)c1cc(C(=O)Nc2c(C)noc2C)c2n1CCOC2)c1ccccc1 [16jk, 3,4-Dihydro-1H-pyrrolo[2,1-c][1,4]oxazine-6,8-dicarboxylic acid 8-[(3,5-dimethyl-isoxazol-4-yl)-amide] 6-[((R)-1-phenyl-propyl)-amide]]
  IC50: 620 nM

## CC[C@@H](NC(=O)c1cc(C(=O)NCc2c(C)noc2C)c2n1CCOC2)c1ccccc1 [16jl, 3,4-Dihydro-1H-pyrrolo[2,1-c][1,4]oxazine-6,8-dicarboxylic acid 8-[(3,5-dimethyl-isoxazol-4-ylmethyl)-amide] 6-[((R)-1-phenyl-propyl)-amide]]
  IC50: 3200 nM

## CC[C@@H](NC(=O)c1cc(C(=O)NCc2ncccn2)c2n1CCOC2)c1ccccc1 [16jm, 3,4-Dihydro-1H-pyrrolo[2,1-c][1,4]oxazine-6,8-dicarboxylic acid 6-[((R)-1-phenyl-propyl)-amide] 8-[(pyrimidin-2-ylmethyl)-amide]]
  IC50: 1500 nM

## CC[C@@H](NC(=O)c1cc(C(=O)NCc2ncco2)c2n1CCOC2)c1ccccc1 [16jn, 3,4-Dihydro-1H-pyrrolo[2,1-c][1,4]oxazine-6,8-dicarboxylic acid 8-[(oxazol-2-ylmethyl)-amide] 6-[((R)-1-phenyl-propyl)-amide]]
  IC50: 1000 nM

## CC[C@@H](NC(=O)c1cc(C(=O)N[C@H](CC)c2ccccc2)n2c1COCC2)c1ccc(OC)nc1 [16jo, 3,4-Dihydro-1H-pyrrolo[2,1-c][1,4]oxazine-6,8-dicarboxylic acid 8-{[(R)-1-(6-methoxy-pyridin-3-yl)-propyl]-amide} 6-[((R)-1-phenyl-propyl)-amide]]
  IC50: 250 nM

## CC[C@H](NC(=O)c1cc(C(=O)N[C@H](C)c2ccc(F)cc2)c2n1CCOC2)c1ccccc1 [16jp, 3,4-Dihydro-1H-pyrrolo[2,1-c][1,4]oxazine-6,8-dicarboxylic acid 8-{[(R)-1-(4-fluoro-phenyl)-ethyl]-amide} 6-[((S)-1-phenyl-propyl)-amide]]
  IC50: 220 nM

## CC[C@H](NC(=O)c1cc(C(=O)N[C@@H](c2ccc(F)cc2)C(C)C)c2n1CCOC2)c1ccccc1 [16jq, 3,4-Dihydro-1H-pyrrolo[2,1-c][1,4]oxazine-6,8-dicarboxylic acid 8-{[(R)-1-(4-fluoro-phenyl)-2-methyl-propyl]-amide} 6-[((S)-1-phenyl-propyl)-amide]]
  IC50: 67 nM

## CC[C@@H](NC(=O)c1cc(C(=O)NCc2nc3ccccc3o2)c2n1CCOC2)c1ccccc1 [16js, 3,4-Dihydro-1H-pyrrolo[2,1-c][1,4]oxazine-6,8-dicarboxylic acid 8-[(benzooxazol-2-ylmethyl)-amide] 6-[((R)-1-phenyl-propyl)-amide]]
  IC50: 540 nM

## CC[C@@H](NC(=O)c1cc(C(=O)NCc2nccs2)c2n1CCOC2)c1ccccc1 [16jt, 3,4-Dihydro-1H-pyrrolo[2,1-c][1,4]oxazine-6,8-dicarboxylic acid 6-[((R)-1-phenyl-propyl)-amide] 8-[(thiazol-2-ylmethyl)-amide]]
  IC50: 150 nM

## CC[C@@H](NC(=O)c1cc(C(=O)Nc2nc(C)c(C)s2)c2n1CCOC2)c1ccccc1 [16ju, 3,4-Dihydro-1H-pyrrolo[2,1-c][1,4]oxazine-6,8-dicarboxylic acid 8-[(4,5-dimethyl-thiazol-2-yl)-amide] 6-[((R)-1-phenyl-propyl)-amide]]
  IC50: 940 nM

## CC[C@@H](NC(=O)c1cc(C(=O)Nc2cnoc2)c2n1CCOC2)c1ccccc1 [16jv, 3,4-Dihydro-1H-pyrrolo[2,1-c][1,4]oxazine-6,8-dicarboxylic acid 8-isoxazol-4-ylamide 6-[((R)-1-phenyl-propyl)-amide]]
  IC50: 210 nM

## CC[C@@H](NC(=O)c1cc(C(=O)Nc2cc(C(F)(F)F)ccc2Cl)c2n1CCOC2)c1ccccc1 [16jx, 3,4-Dihydro-1H-pyrrolo[2,1-c][1,4]oxazine-6,8-dicarboxylic acid 8-[(2-chloro-5-trifluoromethyl-phenyl)-amide] 6-[((R)-1-phenyl-propyl)-amide]]
  IC50: 220 nM
